The values that follow are results of earlier work, collected in US12201674B2 (EDIX SA, priority 2018, dated 2025).

The target of data set [1] is SSTR 1 (Homo sapiens, UniProt P30872).
Data set [2] concerns the target human somatostatin receptors (SSTR) 2 (Homo sapiens, UniProt P30874).
In data set [3] the target is SSTR 4 (Homo sapiens, UniProt P31391).
Data set [4] addresses SSTR 3 (Homo sapiens, UniProt P32745).

The structures appear in SMILES notation.

Sequence of SSTR 1 (P30872 whole entry): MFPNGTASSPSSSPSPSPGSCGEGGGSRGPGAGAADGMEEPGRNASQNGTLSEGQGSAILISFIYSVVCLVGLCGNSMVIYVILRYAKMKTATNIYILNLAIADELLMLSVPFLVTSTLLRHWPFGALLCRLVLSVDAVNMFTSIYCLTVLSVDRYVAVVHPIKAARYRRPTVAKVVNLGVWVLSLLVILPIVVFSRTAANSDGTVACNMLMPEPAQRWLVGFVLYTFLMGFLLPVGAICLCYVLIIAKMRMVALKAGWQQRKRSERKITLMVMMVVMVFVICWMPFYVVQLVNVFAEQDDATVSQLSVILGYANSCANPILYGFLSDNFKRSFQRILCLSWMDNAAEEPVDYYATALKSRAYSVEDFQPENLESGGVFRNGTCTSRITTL
Sequence of SSTR 4 (P31391 whole entry): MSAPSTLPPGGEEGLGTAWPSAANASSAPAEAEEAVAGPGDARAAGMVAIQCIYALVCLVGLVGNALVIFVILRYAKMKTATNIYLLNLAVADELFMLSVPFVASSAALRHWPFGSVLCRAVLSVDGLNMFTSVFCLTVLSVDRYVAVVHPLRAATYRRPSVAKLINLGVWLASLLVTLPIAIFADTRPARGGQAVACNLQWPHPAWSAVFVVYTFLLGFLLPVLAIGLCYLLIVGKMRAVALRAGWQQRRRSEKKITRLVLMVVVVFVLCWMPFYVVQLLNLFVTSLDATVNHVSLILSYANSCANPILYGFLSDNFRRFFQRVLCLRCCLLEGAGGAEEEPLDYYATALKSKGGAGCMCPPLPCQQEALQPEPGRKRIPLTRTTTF
Sequence of SSTR 3 (P32745 whole entry): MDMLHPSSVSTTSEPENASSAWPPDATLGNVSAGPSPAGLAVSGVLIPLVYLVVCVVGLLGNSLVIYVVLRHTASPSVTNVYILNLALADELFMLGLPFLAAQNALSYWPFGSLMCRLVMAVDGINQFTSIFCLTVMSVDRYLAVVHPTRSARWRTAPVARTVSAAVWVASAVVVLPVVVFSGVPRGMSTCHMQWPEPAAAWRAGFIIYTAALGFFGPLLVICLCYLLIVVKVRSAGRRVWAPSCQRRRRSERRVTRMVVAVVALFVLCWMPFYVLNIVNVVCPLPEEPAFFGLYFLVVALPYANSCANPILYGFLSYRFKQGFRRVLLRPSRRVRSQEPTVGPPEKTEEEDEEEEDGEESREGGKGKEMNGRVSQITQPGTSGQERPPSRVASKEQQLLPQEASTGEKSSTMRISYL
Sequence of human somatostatin receptors (SSTR) 2 (P30874 whole entry): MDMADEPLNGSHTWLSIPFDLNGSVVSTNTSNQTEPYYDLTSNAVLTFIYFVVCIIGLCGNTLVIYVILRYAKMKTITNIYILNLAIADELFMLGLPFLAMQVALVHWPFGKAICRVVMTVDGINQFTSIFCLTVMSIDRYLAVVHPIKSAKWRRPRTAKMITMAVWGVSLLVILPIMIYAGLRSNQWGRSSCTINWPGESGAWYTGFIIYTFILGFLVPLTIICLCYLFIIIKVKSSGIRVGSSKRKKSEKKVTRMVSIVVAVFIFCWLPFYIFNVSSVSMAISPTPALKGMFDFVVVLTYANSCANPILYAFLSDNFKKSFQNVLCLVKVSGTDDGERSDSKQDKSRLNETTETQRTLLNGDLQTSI

Regarding `CC(C)[C@@H]1NC(=O)[C@H](CCCCN)NC(=O)[C@@H](Cc2c[nH]c3ccccc23)NC(=O)[C@H](Cc2ccc(O)cc2)NC(=O)[C@@H](NC(=O)[C@H](N)Cc2ccc3ccccc3c2)CSSC[C@@H](C(=O)N[C@H](C(N)=O)[C@@H](C)O)NC1=O` [lanreotide], the affinity entry in data set [1] is reported as “low affinity”; in data set [2], “high affinity”; in data set [3], “low affinity”; in data set [4] it was “low affinity”.
